Test [1] concerns the target T1, FPR1 (Homo sapiens (Human), UniProt P21462). In words: Cyclic adenosine monophosphate (cAMP) assay, CHO-K1 cells stably overexpressing hFPR1. The test is classed as cell-based. The settings on record: 2.5 μM Forskolin and 0.25 nM WKYMVm (FPR1 agonist). How it is done: Cyclic Adenosine Monophosphate (cAMP) Assay
CHO-K1 cells stably overexpressing hFPR1 were plated into 384-well cell culture plates (2,000/well/5 μL) in 1× Stimulation Buffer (LANCE Ultra cAMP Kit, Perkin Elmer, TRF0263). 1 μL compound solution (prepared in ddH2O containing 0.2% DMSO) was added to each well. Plates were centrifuged briefly, and cells were incubated at 37° C. in 5% CO2 for 10 minutes. 4 μL solution containing 2.5 μM Forskolin and 0.25 nM WKYMVm (an FPR1 agonist, GLPBIO, GC15140) was then added to each well. 5 μL of Eu-cAMP solution (diluted to manufacturer's recommended working concentration in Detection Buffer, LANCE Ultra cAMP Kit) and 5 μL of ULight-anti-cAMP solution (diluted in Detection Buffer, LANCE Ultra cAMP Kit) were added to each well. Plates were centrifuged briefly, and cells were incubated at room temperature for 1 hour. Fluorescence emission at 665 nm and 620 nm from the samples was measured by a Perkin Elmer Envision instrument.
(§1) The effects of the compounds of the present disclosure on regulating the FPR1-mediated cell signaling were measured by monitoring the cellular cAMP level change and anti-reactive oxygen species formation in human neutrophils in the presence of an FPR1 agonist, respectively, as illustrated by the examples in Table 1.

In test [2] the target is T1, FPR1. The test can be described thus: Reactive oxygen species (ROS) assay in human neutrophils stimulated with fMLP. The format is cell-based. Particulars: human neutrophils from whole blood; fMLP (500 nM); DCFH-DA fluorescence; read-out: Anti-ROS IC50. How it is done:
Reactive Oxygen Species (ROS) Assay
Human whole blood was collected, and ACK lysis buffer (ThermoFisher, A1049201) was added at 3 times the volume of the blood sample to lyse the red blood cells. The sample was incubated on ice for 15 minutes, and gently mixed twice during the incubation. 10 mL DPBS was then added, and the sample was centrifuged for 8 minutes. After removing the supernatant, remaining cells were resuspended in RPMI1640 medium containing 3% FBS and centrifuged again for 10 minutes. After removing the supernatant, cells were again resuspended in RPMI1640 medium containing 3% FBS. Neutrophil cell count was determined using FACS analysis by APC-labeled CD11b antibody (Biolegend, 101211) and FITC-labeled CD66b antibody (Biolegend, 305104). Neutrophils were then plated into 96-well plates (300,000/well). Plates were centrifuged and supernatant was removed. Cells were resuspended in 80 μL of compound solution (prepared in RPMI1640 medium containing 3% FBS), then incubated at room temperature for 15 minutes. 20 μL solution containing DCFH-DA (at the manufacturer's recommended concentration, Yeasen Biotechnology, 50101ES01) and fMLP (500 nM) was then added. Cells were incubated at 37° C. in 5% CO2 for 20 minutes away from light. After incubation, cells were placed on ice for 5 minutes, washed twice with 200 μL ice-cold DPBS, then resuspended in ice-cold DPBS at 100 µL/well. Fluorescence from each sample was measured at 485 nm excitation and 535 nm emission.
as §1

T1 sequence (P21462 whole entry): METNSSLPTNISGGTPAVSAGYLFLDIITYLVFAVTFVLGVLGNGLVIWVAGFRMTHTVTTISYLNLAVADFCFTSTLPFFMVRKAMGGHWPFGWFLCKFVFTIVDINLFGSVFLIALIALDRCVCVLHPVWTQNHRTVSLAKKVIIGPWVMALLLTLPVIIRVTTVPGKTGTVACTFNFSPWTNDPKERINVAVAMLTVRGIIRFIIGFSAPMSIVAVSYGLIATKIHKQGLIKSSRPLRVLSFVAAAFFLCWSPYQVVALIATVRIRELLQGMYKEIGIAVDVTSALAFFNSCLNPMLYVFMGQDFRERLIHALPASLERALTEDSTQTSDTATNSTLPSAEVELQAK

Consider `C[C@H](NC(=O)c1c(NS(=O)(=O)c2ccc(C#N)cc2F)c(-c2ccc(F)cc2)nn1C)C(C)(C)C` [Compound 28, (S)-4-((4-cyano-2-fluorophenyl)sulfonamido)-N-(3,3-dimethylbutan-2-yl)-3-(4-fluorophenyl)-1-methyl-1H-pyrazole-5-carboxamide], for which the IC50 in test [1] and in test [2] was 100 to 1000 nM in each case.

As to `C[C@H](NC(=O)c1c(NS(=O)(=O)c2ccc(C#N)cc2)c(C2CCOCC2)nn1C)C(C)(C)C` [Compound 25, (S)-4-((4-cyanophenyl)sulfonamido)-N-(3,3-dimethylbutan-2-yl)-1-methyl-3-(tetrahydro-2H-pyran-4-yl)-1H-pyrazole-5-carboxamide], the IC50 in test [1] and in test [2] was 100 to 1000 nM each time.

On to `C[C@H](NC(=O)c1c(NS(=O)(=O)c2ccc(Cl)cc2)c(C2CCC3(CC2)OCCO3)nn1C)C(C)(C)C` [Compound 23, (S)-4-((4-chlorophenyl)sulfonamido)-N-(3,3-dimethylbutan-2-yl)-1-methyl-3-(1,4-dioxaspiro[4.5]decan-8-yl)-1H-pyrazole-5-carboxamide], for which the IC50 in test [1] and in test [2] was 1000 to 25000 nM each time.

As for `C[C@H](NC(=O)c1c(NS(=O)(=O)c2ccc(C#N)cc2)c(-c2ccc(F)cc2F)nn1C)C(C)(C)C` [Compound 41, (S)-4-((4-cyanophenyl)sulfonamido)-3-(2,4-difluorophenyl)-N-(3,3-dimethylbutan-2-yl)-1-methyl-1H-pyrazole-5-carboxamide], the IC50 in test [1] and in test [2] was 100 to 1000 nM in each case.

`CO[C@H]1CC[C@@H](c2nn(C)c(C(=O)N[C@@H](C)C(C)(C)C)c2NS(=O)(=O)c2ccc(C)cc2)CC1` [Compound 6, N—((S)-3,3-dimethylbutan-2-yl)-3-((1s,4R)-4-methoxycyclohexyl)-1-methyl-4-((4-methylphenyl)sulfonamido)-1H-pyrazole-5-carboxamide]: the IC50 in test [1] was 100 to 1000 nM; in test [2], < 100 nM.

Take `C[C@H](NC(=O)c1c(NS(=O)(=O)c2ccc(C#N)cc2)c(-c2ccc(F)cc2)nn1C)C(C)(C)C` [Compound 1, (S)-4-((4-cyanophenyl)sulfonamido)-N-(3,3-dimethylbutan-2-yl)-3-(4-fluorophenyl)-1-methyl-1H-pyrazole-5-carboxamide]: the IC50 in test [1] and in test [2] was 100 to 1000 nM throughout.

On to `CO[C@H]1CC[C@@H](c2nn(C)c(C(=O)N[C@@H](C)C(C)(C)C)c2NS(=O)(=O)c2ccc(C#N)cc2)CC1` [Compound 21, 4-((4-cyanophenyl)sulfonamido)-N—((S)-3,3-dimethylbutan-2-yl)-3-((1S,4R)-4-methoxycyclohexyl)-1-methyl-1H-pyrazole-5-carboxamide], for which the IC50 in test [1] and in test [2] was < 100 nM throughout.

Turning to `COc1ccc(S(=O)(=O)Nc2c(-c3ccc(F)cc3)nn(C)c2C(=O)N[C@@H](C)C(C)(C)C)cc1` [Compound 27, (S)—N-(3,3-dimethylbutan-2-yl)-3-(4-fluorophenyl)-4-((4-methoxyphenyl)sulfonamido)-1-methyl-1H-pyrazole-5-carboxamide], the IC50 in test [1] and in test [2] was 100 to 1000 nM each time.

On to `C[C@H](NC(=O)c1c(NS(=O)(=O)c2ccc(C#N)cc2)c(C2CCC(F)(F)CC2)nn1C)C(C)(C)C` [Compound 44, (S)-4-((4-cyanophenyl)sulfonamido)-3-(4,4-difluorocyclohexyl)-N-(3,3-dimethylbutan-2-yl)-1-methyl-1H-pyrazole-5-carboxamide], for which the IC50 in test [1] and in test [2] was 100 to 1000 nM in each case.

As for `C[C@H](NC(=O)c1c(NS(=O)(=O)c2ccc(Cl)cc2)c(-c2ccc(F)cc2)nn1C)C(C)(C)C` [Compound 38, (S)-4-((4-chlorophenyl)sulfonamido)-N-(3,3-dimethylbutan-2-yl)-3-(4-fluorophenyl)-1-methyl-1H-pyrazole-5-carboxamide], the IC50 in test [1] and in test [2] was 100 to 1000 nM in each case.

For the compound `C[C@H](NC(=O)c1c(NS(=O)(=O)c2ccc(Cl)cc2)c(C2CCOCC2)nn1C)C(C)(C)C` [Compound 9, (S)-4-((4-chlorophenyl)sulfonamido)-N-(3,3-dimethylbutan-2-yl)-1-methyl-3-(tetrahydro-2H-pyran-4-yl)-1H-pyrazole-5-carboxamide], the IC50 in test [1] and in test [2] was 100 to 1000 nM each time.

For `COC1CC=C(c2nn(C)c(C(=O)N[C@@H](C)C(C)(C)C)c2NS(=O)(=O)c2ccc(Cl)cc2)CC1` (stereo partly drawn) [Compound 22, 4-((4-chlorophenyl)sulfonamido)-N—((S)-3,3-dimethylbutan-2-yl)-3-(4-methoxycyclohex-1-en-1-yl)-1-methyl-1H-pyrazole-5-carboxamide], the figures for the IC50 in test [1] and in test [2] were 100 to 1000 nM and < 100 nM, respectively.

Regarding `C[C@H](NC(=O)c1c(NS(=O)(=O)c2ccc(Cl)cc2)c(C2=CCC3(CC2)OCCO3)nn1C)C(C)(C)C` [Compound 24, (S)-4-((4-chlorophenyl)sulfonamido)-N-(3,3-dimethylbutan-2-yl)-1-methyl-3-(1,4-dioxaspiro[4.5]dec-7-en-8-yl)-1H-pyrazole-5-carboxamide], the IC50 in test [1] and in test [2] was 1000 to 25000 nM throughout.

Turning to `COCc1ncccc1-c1nn(C)c(C(=O)N[C@@H](C)C(C)(C)C)c1NS(=O)(=O)c1ccc(C#N)cc1` [Compound 42, (S)-4-((4-cyanophenyl)sulfonamido)-N-(3,3-dimethylbutan-2-yl)-3-(2-(methoxymethyl)pyridin-3-yl)-1-methyl-1H-pyrazole-5-carboxamide], the IC50 in test [1] and in test [2] was > 25000 nM each time.

For `COCc1cccc(-c2nn(C)c(C(=O)N[C@@H](C)C(C)(C)C)c2NS(=O)(=O)c2ccc(C)cc2)c1` [Compound 15, (S)—N-(3,3-dimethylbutan-2-yl)-3-(3-(methoxymethyl)phenyl)-1-methyl-4-((4-methylphenyl)sulfonamido)-1H-pyrazole-5-carboxamide], the half-inhibitory concentration (IC50) was > 25000 nM in test [1] and 100 to 1000 nM in test [2].

In the case of `COCc1ccccc1-c1nn(C)c(C(=O)N[C@@H](C)C(C)(C)C)c1NS(=O)(=O)c1ccc(C)cc1` [Compound 33, (S)—N-(3,3-dimethylbutan-2-yl)-3-(2-(methoxymethyl)phenyl)-1-methyl-4-((4-methylphenyl)sulfonamido)-1H-pyrazole-5-carboxamide], the concentration for half-maximal inhibition (IC50) in test [1] and in test [2] was 100 to 1000 nM each time.

Source of the values: patent publication US20240018124A1, “MODULATORS OF FPR1 AND METHODS OF USING THE SAME” (BIOFRONT LTD, priority 2021, published 2024).
